{
  "source": "patent US5466440A",
  "about": "“Formulations of oral gastrointestinal diagnostic X-ray contrast agents in combination with pharmaceutically acceptable clays” (Eastman Kodak Company, priority 1994, dated 1995)",
  "key": {"[1]": {"test": "X-ray diagnostic imaging of the GI tract", "type": "in vivo, rats", "conditions": "for Imaging efficacy, stabilized with Pluronic F88: milled with F88", "protocol": "X-ray diagnostic imaging was performed in anesthetized rats with the exception of G05-R1 samples which were imaged in fasted and anesthetized ferrets. Images were obtained using the Siemens C-Arm Siremobil 3U x-ray unit. The imaging dose was 10 ml/kg administered via gastric intubation to the anesthetized animal. X-rays were taken at 15, 30, 45 and 60 minutes and at 1, 2, 5 and 24 hours post-dose. […]\nImages were evaluated by the criteria of: coating, homogeneity, rate of gastric emptying and the total transit time. These are considered to be a measure of the stability of the nanosuspension during transit down the GI tract and the ability of the formulation to image the lower gastrointestinal tract. Nanosuspensions were rated excellent when there was a uniform coating with transradiation of long intestinal segments, sufficient radiodensity to delineate anatomical structure, rapid emptying and transit, and stability and homogeneity during GI transit. A plus sign (+) was assigned when imaging in the lower GI was exceptional, a minus sign (-) as given when it was not. […] All other nanosuspensions were compared with this formulation."}, "Aqueous solubility": {"test": "Aqueous solubility", "type": "physicochemical", "conditions": "water, Table 3"}, "[2]": {"test": "X-ray diagnostic imaging of the GI tract", "type": "in vivo", "conditions": "ferrets; milled in Pluronic F127", "protocol": "X-ray diagnostic imaging was performed in anesthetized rats with the exception of G05-R1 samples which were imaged in fasted and anesthetized ferrets. Images were obtained using the Siemens C-Arm Siremobil 3U x-ray unit. The imaging dose was 10 ml/kg administered via gastric intubation to the anesthetized animal. X-rays were taken at 15, 30, 45 and 60 minutes and at 1, 2, 5 and 24 hours post-dose. A 10-15 ml volume of air was introduced to the animal at 30 minutes to produce a double contrast image.\nImages were evaluated by the criteria of: coating, homogeneity, rate of gastric emptying and the total transit time. These are considered to be a measure of the stability of the nanosuspension during transit down the GI tract and the ability of the formulation to image the lower gastrointestinal tract. Nanosuspensions were rated excellent when there was a uniform coating with transradiation of long intestinal segments, sufficient radiodensity to delineate anatomical structure, rapid emptying and transit, and stability and homogeneity during GI transit. A plus sign (+) was assigned when imaging in the lower GI was exceptional, a minus sign (-) as given when it was not. The nanosuspension of WIN 8883 milled in Pluronic F127, was considered to be excellent for both upper and lower GI imaging in both rats and ferrets. All other nanosuspensions were compared with this formulation."}},
  "data": [
    {"smiles": "CCCCC(CC)COC(=O)CC(C(=O)OCC(CC)CCCC)S(=O)(=O)O", "note": "(stereo not shown) [DOSS, dioctylsulfosuccinate]", "values": [
      {"measurement": "Stabilizing effect on imaging efficacy", "setting": "[1]; stabilizer for WIN 8883 nanosuspension", "value": "fair"}
    ]},
    {"smiles": "CCOC(=O)c1c(I)c(NC(C)=O)c(I)c(NC(C)=O)c1I", "note": "[WIN 8883, Ethyl 3,5-bis(acetylamino)-2,4,6-triiodobenzoate]", "values": [
      {"measurement": "solubility", "setting": "Aqueous solubility", "value": "< 5", "unit": "µg/mL"},
      {"measurement": "Imaging efficacy, overall", "setting": "[1]", "value": "excellent"},
      {"measurement": "Imaging efficacy, stabilized with Pluronic F88", "setting": "[1]", "value": "excellent imaging, and then only in the upper GI"},
      {"measurement": "Upper and lower GI imaging", "setting": "[1]; rats, milled in Pluronic F127", "value": "excellent"},
      {"measurement": "Upper and lower GI imaging", "setting": "[2]", "value": "excellent"}
    ]},
    {"smiles": "CCOC(=O)c1c(I)c(NC(C)=O)c(I)c(C(=O)OCC)c1I", "note": "[WIN 59316, Diethyl 5-acetylamino-2,4,6-triiodo-isophthalate]", "values": [
      {"measurement": "solubility", "setting": "Aqueous solubility", "value": 1, "unit": "µg/mL"},
      {"measurement": "Imaging efficacy, overall", "setting": "[1]", "value": "fair"},
      {"measurement": "Lower GI imaging", "setting": "[1]", "value": "imaging well in the lower GI tract"}
    ]},
    {"smiles": "CCOC(=O)CCCCCOC(=O)c1c(I)c(NC(C)=O)c(I)c(NC(C)=O)c1I", "note": "[WIN 67722, 6-Ethoxy-6-oxohexyl 3,5-bis(acetylamino)-2,4,6-triiodobenzoate]", "values": [
      {"measurement": "solubility", "setting": "Aqueous solubility", "value": 2, "unit": "µg/mL"},
      {"measurement": "Lower GI imaging", "setting": "[1]", "value": "poor"},
      {"measurement": "Upper GI imaging", "setting": "[1]", "value": "good"}
    ]},
    {"smiles": "COc1ccc(COC(=O)c2c(I)c(NC(C)=O)c(I)c(NC(C)=O)c2I)cc1", "note": "[WIN 67754, 3,5-Bis-acetylamino-2,4,6-triiodo-benzoic acid 4-methoxy-benzyl ester]", "values": [
      {"measurement": "solubility", "setting": "Aqueous solubility", "value": 15, "unit": "µg/mL"},
      {"measurement": "Imaging efficacy, overall", "setting": "[1]", "value": "good"},
      {"measurement": "Lower GI imaging", "setting": "[1]", "value": "exceptional"}
    ]},
    {"smiles": "CC(=O)Nc1c(I)c(NC(C)=O)c(I)c(C(=O)OCc2ccc(C(=O)OC(C)C)cc2)c1I", "note": "[WIN 67956, 3,5-Bis-acetylamino-2,4,6-triiodo-benzoic acid 4-isopropyl benzoate ester]", "values": [
      {"measurement": "solubility", "setting": "Aqueous solubility", "value": 1, "unit": "µg/mL"},
      {"measurement": "Gastric emptying", "setting": "[1]", "value": "very rapid gastric emptying"},
      {"measurement": "Imaging efficacy, overall", "setting": "[1]", "value": "good"},
      {"measurement": "Coating", "setting": "[1]; repeated with air given at 15 minutes to induce double contrast", "value": "No improvement in coating"}
    ]},
    {"smiles": "CCOC(=O)C(C)(OC(=O)c1c(I)c(NC(C)=O)c(I)c(NC(C)=O)c1I)C(=O)OCC", "note": "[WIN 67975]", "values": [
      {"measurement": "solubility", "setting": "Aqueous solubility", "value": 8, "unit": "µg/mL"},
      {"measurement": "Imaging efficacy, overall", "setting": "[1]", "value": "fair"}
    ]},
    {"smiles": "CC(=O)Nc1c(I)c(NC(C)=O)c(I)c(C(=O)OCCCCCC(=O)OC(C)C)c1I", "note": "[WIN 67995, 3,5,-Bis-acetylamino-2,4,6-triiodo-benzoic acid 5-isopropoxycarbonyl-pentylester]", "values": [
      {"measurement": "solubility", "setting": "Aqueous solubility", "value": 1, "unit": "µg/mL"},
      {"measurement": "Lower GI imaging", "setting": "[1]", "value": "poor"},
      {"measurement": "Upper GI imaging", "setting": "[1]", "value": "good"}
    ]},
    {"smiles": "CC(=O)Nc1c(I)c(NC(C)=O)c(I)c(C(=O)OC(C(=O)OC(C)C)C(=O)OC(C)C)c1I", "note": "[WIN 68165, Propanedioic Acid, [[3,5-bis-(acetylamino)-2,4,6-triiodo-benzoyl]oxy]-bis(1-methylethyl)ester]", "values": [
      {"measurement": "solubility", "setting": "Aqueous solubility", "value": 1, "unit": "µg/mL"},
      {"measurement": "Imaging efficacy, overall", "setting": "[1]", "value": "fair"}
    ]},
    {"smiles": "CCOC(=O)C(CC)OC(=O)c1c(I)c(NC(C)=O)c(I)c(C(=O)OC(CC)C(=O)OCC)c1I", "note": "(stereo not shown) [WIN 68183, Bis-[1-(ethoxycarbonyl)propyl]-2,4,6-triiodo-5-acetylamino-isophthalate]", "values": [
      {"measurement": "solubility", "setting": "Aqueous solubility", "value": "< 1", "unit": "µg/mL"},
      {"measurement": "Imaging efficacy, overall", "setting": "[1]", "value": "excellent"},
      {"measurement": "Lower GI imaging", "setting": "[1]", "value": "not as definitive as with WIN 8883"},
      {"measurement": "Imaging efficacy, stabilized with Pluronic F88", "setting": "[1]", "value": "loss of efficacy"}
    ]},
    {"smiles": "CCc1c(I)c(CC)c(I)c(CC)c1I", "note": "[WIN 68756, 1,3,5-Triethyl-2,4,6-triiodobenzene]", "values": [
      {"measurement": "solubility", "setting": "Aqueous solubility", "value": "< 1", "unit": "µg/mL"},
      {"measurement": "Imaging efficacy, overall", "setting": "[1]", "value": "excellent"},
      {"measurement": "Lower GI imaging", "setting": "[1]", "value": "not as definitive as with WIN 8883"},
      {"measurement": "Imaging efficacy, stabilized with Pluronic F88", "setting": "[1]", "value": "loss of efficacy"}
    ]}
  ]
}
